6 compounds from publication PMC4451461, “SimC7 Is a Novel NAD(P)H-Dependent Ketoreductase Essential for the Antibiotic Activity of the DNA Gyrase Inhibitor Simocyclinone” (Journal of Molecular Biology, 2015) can be followed below.

By IC50 is commonly meant the concentration at which inhibition is half-maximal. Higher therefore signals weaker potency in that assay.

Common to all, as to assay type: biochemical
For assay [1], the target named is T1, DNA gyrase subunit A (GyrA) (Escherichia coli, UniProt P0AES4). Description: DNA gyrase supercoiling inhibition; SPR showed only weak, non-specific binding to GyrA. More on the design: DNA gyrase; with GyrB.
Target sequence in this assay (P0AES4 2-875): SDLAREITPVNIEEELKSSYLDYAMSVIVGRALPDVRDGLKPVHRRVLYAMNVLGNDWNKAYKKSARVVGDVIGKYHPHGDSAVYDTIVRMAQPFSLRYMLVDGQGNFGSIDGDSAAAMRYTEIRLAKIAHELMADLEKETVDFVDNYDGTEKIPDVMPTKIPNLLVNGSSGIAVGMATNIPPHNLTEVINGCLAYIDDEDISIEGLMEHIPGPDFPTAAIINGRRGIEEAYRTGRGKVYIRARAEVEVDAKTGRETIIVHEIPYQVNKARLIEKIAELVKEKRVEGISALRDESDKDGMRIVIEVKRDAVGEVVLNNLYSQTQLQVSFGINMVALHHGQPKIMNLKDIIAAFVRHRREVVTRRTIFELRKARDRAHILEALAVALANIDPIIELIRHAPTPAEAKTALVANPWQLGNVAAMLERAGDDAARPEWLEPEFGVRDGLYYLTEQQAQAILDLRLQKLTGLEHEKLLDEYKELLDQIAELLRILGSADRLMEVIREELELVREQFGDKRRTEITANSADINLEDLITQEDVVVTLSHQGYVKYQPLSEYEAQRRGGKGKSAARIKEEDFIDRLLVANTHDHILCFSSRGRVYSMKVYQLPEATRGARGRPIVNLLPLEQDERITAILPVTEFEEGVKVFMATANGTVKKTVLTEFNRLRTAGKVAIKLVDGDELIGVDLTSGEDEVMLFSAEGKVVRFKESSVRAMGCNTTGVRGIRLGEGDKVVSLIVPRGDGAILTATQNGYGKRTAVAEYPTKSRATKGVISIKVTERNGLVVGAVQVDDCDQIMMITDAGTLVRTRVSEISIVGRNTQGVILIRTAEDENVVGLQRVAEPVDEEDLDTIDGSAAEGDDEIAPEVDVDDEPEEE
Assay [2] has as its target T1, DNA gyrase subunit A (GyrA). Description: DNA gyrase inhibition (supercoiling) assay. More on the design: DNA gyrase; with GyrB.
Target sequence in this assay (P0AES4 2-875): as above
Assay [3] concerns the target T2, SimC7 (Streptomyces antibioticus, UniProt G9VYV4).
T2 construct: N-terminally His-tagged SimC7
T2 sequence (G9VYV4 1-284): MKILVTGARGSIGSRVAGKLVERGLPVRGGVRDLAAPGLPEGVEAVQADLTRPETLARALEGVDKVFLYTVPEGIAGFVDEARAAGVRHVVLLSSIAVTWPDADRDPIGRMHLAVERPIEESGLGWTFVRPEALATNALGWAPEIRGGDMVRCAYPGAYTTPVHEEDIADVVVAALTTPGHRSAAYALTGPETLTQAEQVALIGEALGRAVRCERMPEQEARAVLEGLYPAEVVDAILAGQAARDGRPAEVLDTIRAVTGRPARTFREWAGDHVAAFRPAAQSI
Description: HPLC-UV ketoreductase assay ([…] NAD(P)H).

For assay [4], the target named is T1, DNA gyrase subunit A (GyrA). The experiment in a line: SPR to GyrA N-terminal domain (data not shown); DNA gyrase supercoiling inhibition. Details: GyrA N-terminal domain (SPR); DNA gyrase (supercoiling); with GyrB (supercoiling assay). An excerpt:
SPR to GyrA N-terminal domain (data not shown); DNA gyrase supercoiling inhibition on DNA gyrase subunit A (GyrA) | SD8 bound to the GyrA N-terminal domain with a similar affinity to that reported previously
Target sequence in this assay (P0AES4 2-523): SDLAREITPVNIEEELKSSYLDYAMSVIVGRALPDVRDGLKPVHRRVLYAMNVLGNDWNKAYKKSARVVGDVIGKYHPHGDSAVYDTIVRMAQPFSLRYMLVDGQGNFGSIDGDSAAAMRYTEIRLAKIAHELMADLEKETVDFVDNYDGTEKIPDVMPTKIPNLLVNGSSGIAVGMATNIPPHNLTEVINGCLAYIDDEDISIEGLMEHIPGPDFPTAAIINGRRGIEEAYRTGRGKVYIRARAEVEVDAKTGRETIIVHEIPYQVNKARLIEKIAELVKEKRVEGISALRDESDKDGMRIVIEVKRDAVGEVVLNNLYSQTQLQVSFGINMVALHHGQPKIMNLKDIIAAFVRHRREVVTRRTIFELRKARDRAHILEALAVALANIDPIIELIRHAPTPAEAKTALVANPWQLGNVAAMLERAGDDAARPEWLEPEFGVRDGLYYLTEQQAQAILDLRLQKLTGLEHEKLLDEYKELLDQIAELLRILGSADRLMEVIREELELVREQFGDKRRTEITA

Assay [5] concerns the target T2, SimC7. Description: HPLC-UV ketoreductase assay; also oxidised as substrate in the reverse reaction.

The compound `CC(=O)O[C@@H]1[C@@H](C)O[C@@H](c2ccc3c(c2O)C(=O)[C@]24O[C@@]2(C3=O)[C@@]2(O)C(=O)C=C(C)C[C@@]2(O)C[C@@H]4O)C[C@H]1OC(=O)/C=C/C=C/C=C/C=C/C(=O)Nc1c(O)c2ccc(O)c(Cl)c2oc1=O` [7-oxo-SD8] returned a half-inhibitory concentration (IC50) in assay [1] of 50 to 100 µM.

In assay [2], `COC(=O)/C=C/C=C/C=C/C=C/C(=O)Nc1c(O)c2ccc(O)c(Cl)c2oc1=O` [MGD8N2A] showed an IC50 of 25 µM.

Regarding `NC(=O)C1=CN([C@@H]2O[C@H](COP(=O)(O)OP(=O)(O)OC[C@H]3O[C@@H](n4cnc5c(N)ncnc54)[C@H](O)[C@@H]3O)[C@@H](O)[C@H]2O)C=CC1` [NADH], in assay [3], the “HPLC-UV ketoreductase assay (0.3 mM NAD(P)H)” value is on record as “SimC7 was able to use NADH or NADPH for the reduction (Fig. 6b)”.

For `NC(=O)C1=CN([C@@H]2O[C@H](COP(=O)(O)OP(=O)(O)OC[C@H]3O[C@@H](n4cnc5c(N)ncnc54)[C@H](OP(=O)(O)O)[C@@H]3O)[C@@H](O)[C@H]2O)C=CC1` [NADPH], the “HPLC-UV ketoreductase assay (0.3 mM NAD(P)H)” value in assay [3] was “SimC7 was able to use NADH or NADPH for the reduction (Fig. 6b) but showed a preference for NADPH”.

As for `CC(=O)O[C@@H]1[C@@H](C)O[C@@H](c2ccc3c(c2O)[C@H](O)[C@]24O[C@@]2(C3=O)[C@@]2(O)C(=O)C=C(C)C[C@@]2(O)C[C@@H]4O)C[C@H]1OC(=O)/C=C/C=C/C=C/C=C/C(=O)Nc1c(O)c2ccc(O)c(Cl)c2oc1=O` [SD8, simocyclinone D8], the IC50 in assay [4] lay in the range of 0.1 to 0.5 µM.

On to `CC(=O)O[C@@H]1[C@@H](C)O[C@@H](c2ccc3c(c2O)[C@H](O)[C@]24O[C@@]2(C3=O)[C@@]2(O)C(=O)C=C(C)C[C@@]2(O)C[C@@H]4O)C[C@H]1OC(=O)/C=C/C=C/C=C/C=C/C(=O)Nc1c(O)c2ccc(O)c(Cl)c2oc1=O` [compound 2, simocyclinone D8], for which the “HPLC-UV ketoreductase assay; also oxidised as substrate in the reverse reaction” value in assay [5] is “It was also possible to assay the reaction in the reverse direction, following the oxidation of SD8 to 7-oxo-SD8 by SimC7”.
